{
  "source": "patent US8748130B2",
  "about": "“Human papillomavirus / Ii-Key hybrids and methods of use” (priority 2008, dated 2014)",
  "test_system": "HPV11-specific CTL activity",
  "experiment": "In vivo CTL assay (CFSE-labelled target cells) after co-immunization with CTL epitope HPV11",
  "parameters": "species or system HLA-DR4-tg mice",
  "conditions": "3 weeks",
  "procedure": "HLA-DR4-tg mice were immunized with no peptide (A); 60 nmole of HPV11 (HPV16 E7 (49-57) an H-2D^b-restricted CTL epitope) (B); 60 nmole of HPV11 plus 15 nmole HPV4 hybrid (C); 60 nmole of HPV11 plus 30 nmole HPV4 hybrid (D); or 60 nmole of HPV11 plus 60 nmole HPV4 hybrid (E). Peptides were mixed with 20 μg of CpG and then emulsified in an equal volume of IFA in a total volume of 150 μl/mouse. Three weeks after immunization, HPV11-specific CTL activity was measured in an in vivo assay whereby the cells were incubated with either the immunizing peptide (HPV11) and a high concentration of CFSE or no peptide and a low concentration of CFSE. Equal numbers of the two cell populations were mixed and injected by tail vein into mice. The top figure indicates the percentage of HPV11-specific CTL killing as determined by the ratio of CFSE^low to CFSE^high cells using the formula 1—CFSE^low/CFSE^high following flowcytometry. The histograms for each group are shown below. The data shown are from pooled splenocytes (2 mice per group).\nHLA-DR4-tg mice were immunized with no peptide (A); 60 nmole of HPV11 (HPV16 E7 (49-57), an H-2D^b-restricted CTL epitope) (B); 30 nmole HPV1 plus 60 nmole HPV11 (C); or 30 nmole HPV4 plus 60 nmole HPV11. The peptides were administered as indicated for FIG. 3. Three weeks after immunization, HPV11-specific CTL activity was measured in an in vivo assay (see FIG. 3). […]",
  "data": [
    {"substance": "rahynivtf (RAHYNIVTF; Human papillomavirus type 16) [HPV11]", "values": [
      {"measurement": "HPV11-specific CTL killing (%)", "setting": "Table 5: 60 nmole HPV11 alone, CpG + IFA, pooled splenocytes (2 mice per group)", "result": 19, "unit": "%"},
      {"measurement": "HPV11-specific CTL activity (%)", "setting": "Table 6: 60 nmole HPV11 alone or with 30 nmole HPV1 or HPV4, CpG + IFA, pooled splenic cells", "result": 14, "unit": "%"}
    ]}
  ]
}
